Literature values, collected in patent US7265145B2, “Substituted piperidines and pyrrolidines as calcium sensing receptor modulators and method” (Bristol-Myers Squibb Company, priority 2003, dated 2007).

What was measured:
[1] = OVX rats; oral administration; in the presence of an anti-resorptive agent
[2] = intravenous bolus injection
[3] = postmenopausal women; placebo-controlled trial

Compound	bone mass [1]	serum PTH [2]	reduce the risk of non-traumatic, non-spine fractures [3]	reduce the risk of spine fractures [3]
CC(C)(Cc1ccc2ccccc2c1)NC[C@@H](O)COc1cccc(Cl)c1C#N [NPS-2143]	increase in bone mass	transient increase in serum PTH	–	–
PTH peptide fragment (1-34): PTH peptide fragment (1-34) of parathyroid hormone, stimulator of bone formation (SVSEIQLMHNLGKHLNSMERVEWLRKKLQDVHNF; Parathyroid hormone; UniProt P01270 32-65, looked up, fragment)	–	–	54%	65%
